Consider eleven compounds from PubChem BioAssay (NCI).

Test systems include SF-295 CNS; DMS 114 small cell lung; M19-MEL melanoma; XF 498 CNS; U251 CNS; HCC-2998 colon; DMS 273 small cell lung; CAKI-1 renal; LOX IMVI melanoma; SNB-78 CNS; SNB-75 CNS; SK-OV-3 ovarian; KM20L2 colon; HOP-18 NSCLC; DLD-1 colon; BT-549 breast; MDA-N; MDA-MB-231 breast.
Assay in all cases: NCI tumour cell line growth inhibition, 48 h

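A five-concentration, 48-hour dose response in 96-well plates underlies each endpoint, interpolated linearly between surrounding concentrations. TGI marks complete inhibition of growth.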 Some results are limits rather than exact numbers.

Take `Cc1nc(Nc2nnc(-c3cc([N+](=O)[O-])cc([N+](=O)[O-])c3C)o2)sc1C(=O)CC(=O)Cc1nc2ccc(Cl)cc2[nH]c1=O`: the TGI in the experiment on SF-295 CNS, in the experiment on DMS 114 small cell lung, in the experiment with M19-MEL melanoma, with XF 498 CNS, in the experiment with U251 CNS and in the experiment with HCC-2998 colon was more than 100 µM throughout. Further, the TGI in the experiment with DMS 273 small cell lung, in the experiment on CAKI-1 renal, in the experiment on LOX IMVI melanoma, in the experiment on SNB-78 CNS, in the experiment with SNB-75 CNS and with SK-OV-3 ovarian was more than 100 µM in each case. This compound displayed a TGI in the experiment with KM20L2 colon of more than 100 µM.

Regarding `CS(=O)(=O)c1nc(N)nc2nc[nH]c12`, the TGI with SF-295 CNS, in the experiment on DMS 114 small cell lung, in the experiment with M19-MEL melanoma, in the experiment with HOP-18 NSCLC, in the experiment on XF 498 CNS and in the experiment with U251 CNS was more than 100 µM throughout. For the same compound, the TGI in the experiment on DLD-1 colon, with HCC-2998 colon, in the experiment with DMS 273 small cell lung, in the experiment on CAKI-1 renal, with LOX IMVI melanoma and with SNB-78 CNS was more than 100 µM each time. In addition, the TGI with SK-OV-3 ovarian and in the experiment on KM20L2 colon was more than 100 µM in each case.

Regarding `O=c1c2cccnc2[nH]c2ccc3scnc3c12`, the TGI in the experiment on SF-295 CNS, with BT-549 breast, in the experiment with U251 CNS, in the experiment on HCC-2998 colon, in the experiment on MDA-N and with CAKI-1 renal was more than 10 µM throughout. In addition, the TGI with MDA-MB-231 breast, in the experiment on LOX IMVI melanoma, in the experiment on SNB-75 CNS and in the experiment on SK-OV-3 ovarian was more than 10 µM throughout.

With `N#CN=Nc1cc(Cl)c(N=NC#N)cc1Cl`, the TGI in the experiment on SF-295 CNS, in the experiment on DMS 114 small cell lung, with M19-MEL melanoma, in the experiment with XF 498 CNS, in the experiment on U251 CNS and in the experiment with DLD-1 colon was more than 100 µM in each case. Besides, the TGI in the experiment on HCC-2998 colon, in the experiment on DMS 273 small cell lung, with LOX IMVI melanoma, in the experiment on SNB-78 CNS, in the experiment with SNB-75 CNS and with SK-OV-3 ovarian was more than 100 µM in each case. Further, in the experiment with KM20L2 colon, the TGI is more than 100 µM.

With `O=C(O)C(Cc1cccs1)NC(=O)C(F)(F)F` (stereo unspecified), the TGI in the experiment on SF-295 CNS, with DMS 114 small cell lung, in the experiment with M19-MEL melanoma, in the experiment with HOP-18 NSCLC, with U251 CNS and in the experiment on DLD-1 colon was more than 100 µM each time. Also, the TGI in the experiment with HCC-2998 colon, with DMS 273 small cell lung, in the experiment with CAKI-1 renal, in the experiment on LOX IMVI melanoma, with SNB-75 CNS and in the experiment on SK-OV-3 ovarian was more than 100 µM throughout. This compound also came in with a TGI with KM20L2 colon of more than 100 µM.

On to `COC(=O)c1ccccc1C1CN=NC12Cc1c(C)cc(C)cc1C2=O` (stereo unspecified), for which the TGI in the experiment with SF-295 CNS, in the experiment with BT-549 breast, in the experiment with U251 CNS, with HCC-2998 colon, in the experiment with MDA-N and in the experiment with CAKI-1 renal was more than 100 µM in each case. Further, the TGI with MDA-MB-231 breast, in the experiment on LOX IMVI melanoma, in the experiment with SNB-75 CNS and with SK-OV-3 ovarian was more than 100 µM throughout.

For `c1ccc(COCC23CCN(Cc4ccccc4)C(CC(OCc4ccccc4)C2)S3)cc1` (stereo unspecified), the TGI with SF-295 CNS, in the experiment with BT-549 breast, in the experiment with U251 CNS, in the experiment on HCC-2998 colon, in the experiment on MDA-N and in the experiment with CAKI-1 renal was more than 100 µM in each case. Moreover, the TGI in the experiment on MDA-MB-231 breast, in the experiment on LOX IMVI melanoma, with SNB-75 CNS and in the experiment with SK-OV-3 ovarian was more than 100 µM throughout.

In the case of `CN(CCc1ccc(Br)cc1)CCN1CCCCC1`, the TGI was 61.4 µM in the experiment with SF-295 CNS; 96.1 µM with BT-549 breast; more than 100 µM with U251 CNS; more than 100 µM in the experiment with HCC-2998 colon; 88 µM in the experiment with MDA-N; more than 100 µM with CAKI-1 renal. Also, the TGI is more than 100 µM in the experiment with MDA-MB-231 breast, 94.2 µM in the experiment with LOX IMVI melanoma, 85.4 µM in the experiment on SNB-75 CNS and more than 100 µM in the experiment on SK-OV-3 ovarian.

In the case of `CN(C)c1ccc(N=Nc2cccc3ccoc23)cc1`, the TGI in the experiment on SF-295 CNS, in the experiment on BT-549 breast, in the experiment on U251 CNS, in the experiment on HCC-2998 colon, in the experiment with MDA-N and in the experiment with CAKI-1 renal was more than 100 µM each time. Moreover, the TGI in the experiment on MDA-MB-231 breast, with LOX IMVI melanoma, with SNB-75 CNS and with SK-OV-3 ovarian was more than 100 µM each time.

With `CCCCOC(=O)CN1C(=O)c2ccccc2C1=O`, the TGI in the experiment with SF-295 CNS, in the experiment on M19-MEL melanoma, in the experiment with XF 498 CNS, in the experiment with U251 CNS, in the experiment with DLD-1 colon and with HCC-2998 colon was more than 100 µM throughout. The TGI with DMS 273 small cell lung, in the experiment on CAKI-1 renal, in the experiment on LOX IMVI melanoma, in the experiment with SNB-78 CNS, in the experiment with SNB-75 CNS and in the experiment with SK-OV-3 ovarian was more than 100 µM each time. Also, in the experiment on KM20L2 colon, the TGI was more than 100 µM.

With `Cc1cc(C)c2c(=O)cc(-c3ccc(Cl)cc3)[nH]c2n1`, the TGI in the experiment on SF-295 CNS was more than 73.3 µM; in the experiment with BT-549 breast, 99.4 µM; in the experiment with U251 CNS, more than 100 µM; in the experiment on HCC-2998 colon, more than 100 µM; with MDA-N it was 25 µM; in the experiment on CAKI-1 renal, more than 55.4 µM. Besides, the TGI was more than 51.8 µM in the experiment with MDA-MB-231 breast, more than 100 µM in the experiment on LOX IMVI melanoma, more than 65 µM with SNB-75 CNS and more than 100 µM in the experiment with SK-OV-3 ovarian.
